In brackets after ≈: the same amount, converted by molar mass.
Columns and labels:
[1] = system: Herpes Type 2-Alabama strain; assay: plaque formation inhibition, Herpes Type 2 in HeLa cells; format: cell-based
[2] = system: southern army worm (SAW) Spodoptera eridania; assay: spray applied to SAW; format: in vivo
Method: When a spray containing 2.0 mg/ml purified Justicidin P in water was applied to SAW, 85% feeding inhibition but 0% kill was observed.

Aedes egypti larvae [3] = assay: insecticidal activity against larvae of A. egypti in water; format: in vivo; conditions: Aedes; larvae of A. egypti in H2O; read-out: EC50 (effective kill concentration for 50% of the experimental larvae)
Method: (§1) The insecticidal activity of the crude acetone/water extracts of Justicia extensa, prepared according to the isolation procedure described previously, was tested against laboratory cultures of the mosquito species Aedes egypti (Linnaeus) and southern army worm (SAW) Spodoptera eridania (Cramer). Extracts of leaves, branches and roots were employed in each test.
In tests against larvae of A. egypti, 10 mg of the crude plant extract was thoroughly dispersed in 20 ml of water in a test tube to which 10 first instar larvae were added.

Herpes Type 1-strain VR3 = assay: plaque formation inhibition, Herpes Type 1 in HeLa cells; format: cell-based
out-bred mice = assay: in vivo oral toxicity in out-bred mice; conditions: orally, up to about 324 mg/kg
Method: (§2) In vivo toxicity studies of natural and synthetic Justicidin P produced mixed results. […] However, natural and synthetic Justicidin P were toxic to A/JAX inbred mice when administered orally at dosages of 200 and 100 mg/kg.

in vitro = conditions: human, diploid fibroblast cells
[4] = in vitro toxicity in MDCK cells; format: cell-based, Canine; conditions: dog
Method: In vitro toxicity studies of natural Justicidin P were conducted using Madin-Darby Canine Kidney (MDCK) cells and test concentrations ranging between 0.01 and 0.56 μg/ml. In these tests, Justicidin P was suspended in MEM, diluted, and suspended in a purified agar solution. Duplicate plates containing MDCK cell layers were washed twice with HBSS, overlayed with the test compound-agar solutions, and incubated at 34° C., 5% CO2 for 72 hours. At the conclusion of the incubation period, cell layers were stained with 1% crystal violet, rinsed with tap water, dried and visually inspected to determine toxicity.

A/JAX inbred mice = assay: in vivo oral toxicity in A/JAX inbred mice; conditions: orally, 200 and 100 mg/kg
Method: as §2

IMR-90 cells = conditions: all concentrations tested
[5] = system: Human Rhino Virus (HRV-2); assay: inhibition of HRV-2 in HeLa cells; format: cell-based, Human rhinovirus HRV-2; conditions: Rhinovirus A, 200 PFU
HeLa cells = format: cell-based; conditions: 64 μg/ml to 1 μg/ml
Aedes egypti larvae [6] = assay: insecticidal activity against larvae of A. egypti in water; format: in vivo; conditions: lower concentrations
Spodoptera eridania = assay: insecticidal and feeding inhibition test against southern army worm in pinto bean diet; format: in vivo
Method: as §1

In the case of `COc1cc2c(OC)c3c(c(-c4ccc5c(c4)OCO5)c2cc1OC)C(=O)OC3OC` (single isomer, unassigned) [Justicidin P (natural)], the “Mean Plaques/Plate” value ([1]; 0.004 μg/ml, HSV-2, HeLa) is reported as 136, the “Mean Plaques/Plate” value ([1]; 0.016 μg/ml, HSV-2, HeLa) is reported as 114 and the “Mean Plaques/Plate” value ([1]; 0.063 μg/ml, HSV-2, HeLa) is reported as 60. For the same compound, the “Mean Plaques/Plate” value ([1]; 0.25 μg/ml, HSV-2, HeLa) was 7, the “antiviral activity against Herpes Type 2” value ([1]; HeLa cells) was “demonstrated antiviral activity” and the inhibition at 0.004 µg/mL ([1]; Human alphaherpesvirus 2, 0.004 μg/ml, HSV-2, HeLa) was 14%. For the same compound, the inhibition at 0.016 µg/mL ([1]; Human alphaherpesvirus 2, 0.016 μg/ml, HSV-2, HeLa) was 28%, the inhibition at 0.063 µg/mL ([1]; Human alphaherpesvirus 2, 0.063 μg/ml, HSV-2, HeLa) was 62% and the inhibition at 0.25 µg/mL ([1]; Human alphaherpesvirus 2, 0.25 μg/ml, HSV-2, HeLa) was 96%. It also gave a mortality at 2000 µg/mL ([2]; Spodoptera eridania, topical, read-out: kill) of 0%, a feeding inhibition ([2]; spray containing 2.0 mg/ml in water) of 85% and an LC50 (Aedes egypti larvae [3]) of 0.05 µg/mL (≈ 0.118 µM). The “Mean Plaques/Plate” value (Herpes Type 1-strain VR3; 0.004 μg/ml, HSV-1, HeLa) was 134, the “Mean Plaques/Plate” value (Herpes Type 1-strain VR3; 0.016 μg/ml, HSV-1, HeLa) was 117 and the “Mean Plaques/Plate” value (Herpes Type 1-strain VR3; 0.063 μg/ml, HSV-1, HeLa) was 122. For the same compound, the “Mean Plaques/Plate” value (Herpes Type 1-strain VR3; 0.25 μg/ml, HSV-1, HeLa) was 87, the “antiviral activity against Herpes Type 1” value (Herpes Type 1-strain VR3; HeLa cells) was “demonstrated antiviral activity” and the inhibition at 0.004 µg/mL (Herpes Type 1-strain VR3; Human alphaherpesvirus 1, 0.004 μg/ml, HSV-1, HeLa) was 0%. For the same compound, the inhibition at 0.016 µg/mL (Herpes Type 1-strain VR3; Human alphaherpesvirus 1, 0.016 μg/ml, HSV-1, HeLa) was 6%, the inhibition at 0.063 µg/mL (Herpes Type 1-strain VR3; Human alphaherpesvirus 1, 0.063 μg/ml, HSV-1, HeLa) was 2% and the inhibition at 0.25 µg/mL (Herpes Type 1-strain VR3; Human alphaherpesvirus 1, 0.25 μg/ml, HSV-1, HeLa) was 31%. For the same compound, the in vivo toxicity (out-bred mice) was “no toxicity was observed”, the selectivity ratio (in vitro) was 10 to 60 and the cytotoxicity at 72 h ([4]; 0.01 μg/ml) was 1%. The cytotoxicity at 72 h ([4]; 0.02 μg/ml) was 5%, the cytotoxicity at 72 h ([4]; 0.05 μg/ml) was 15% and the cytotoxicity at 72 h ([4]; 0.11 μg/ml) was 30%. The cytotoxicity at 72 h ([4]; 0.25 μg/ml) was 40%, the cytotoxicity at 72 h ([4]; 0.56 μg/ml) was 70% and the in vivo toxicity (A/JAX inbred mice) was “toxic”. For the same compound, the cytotoxicity (IMR-90 cells) was “exhibited cytotoxicity at all concentrations tested”, the inhibition at 0.016 µg/mL ([5]; HRV2, 0.016 μg/ml) was 107% and the inhibition at 0.08 µg/mL ([5]; HRV2, 0.08 μg/ml) was no less than 100%. For the same compound, the inhibition at 0.4 µg/mL ([5]; HRV2, 0.4 μg/ml) was no less than 100%, the inhibition at 2 µg/mL ([5]; HRV2, 2 μg/ml) was no less than 100% and the inhibition at 10 µg/mL ([5]; HRV2, 10 μg/ml) was 64%. The cytotoxicity (HeLa cells) was “severe cytotoxicity”, the “insecticidal activity of purified fractions” value (Aedes egypti larvae [6]) was “insecticidal component of the J. extensa extracts” and the feeding inhibition (Spodoptera eridania; 1 μg/gm in pinto bean diet) was 62%. The feeding inhibition (Spodoptera eridania; 10 μg/gm in pinto bean diet) was 77%, the feeding inhibition (Spodoptera eridania; 100 μg/gm in pinto bean diet) was 85% and the mortality at 1 µg/g (Spodoptera eridania; Spodoptera eridania, 1 μg/gm in pinto bean diet, read-out: kill) was 20%. It also gave a mortality at 10 µg/g (Spodoptera eridania; Spodoptera eridania, 10 μg/gm in pinto bean diet, read-out: kill) of 10% and a mortality at 100 µg/g (Spodoptera eridania; Spodoptera eridania, 100 μg/gm in pinto bean diet, read-out: kill) of 60%.

Reference: US4486445A, “Justicidin insecticidal and antiviral compounds” (E. I. Du Pont de Nemours and Company, priority 1983, dated 1984)
